Reference: PubChem BioAssay (NCI)
“And” between values parts separate entries of the source, which are not always exact repeats. Equal values may be shown once.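 Grown in 96-well plates, cells were treated for 48 hours with each compound at five concentrations. Insufficient inhibition: endpoint recorded as highest concentration tested. GI50 is the concentration that inhibits growth by half. TGI is the concentration that stops growth completely.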

How the values were obtained:
Assay in all cases: growth of human tumour cells (NCI), 48 h
DMS 273 small cell lung = test system: DMS 273 small cell lung
HOP-18 NSCLC = test system: HOP-18 NSCLC
KM20L2 colon = test system: KM20L2 colon
SNB-78 CNS = test system: SNB-78 CNS
DMS 114 small cell lung = test system: DMS 114 small cell lung
M19-MEL melanoma = test system: M19-MEL melanoma
RXF-631 renal = test system: RXF-631 renal
XF 498 CNS = test system: XF 498 CNS
MDA-N = test system: MDA-N
SN12K1 renal = test system: SN12K1 renal

SMILES | TGI (DMS 273 small cell lung) | TGI (HOP-18 NSCLC) | TGI (KM20L2 colon) | TGI (SNB-78 CNS) [µM] | TGI (DMS 114 small cell lung) | TGI (M19-MEL melanoma) | TGI (MDA-N) [µM] | also measured
N.N.O=P([O-])([O-])C1(P(=O)([O-])[O-])CCCCCN1.[Pt+2] | > 100 µM | > 100 µM | > 100 µM | > 100 | – | – | – | GI50 (DMS 273 small cell lung): > 100 µM; GI50 (HOP-18 NSCLC): > 100 µM; GI50 (KM20L2 colon): > 100 µM; GI50 (SNB-78 CNS): 78.4 µM
CC(=O)[CH-]C(C)=O.CC(=O)[CH-]C(C)=O.CC[O-].CC[O-].[Ti+4] | – | – | – | – | > 100 µM | – | – | GI50 (DMS 114 small cell lung): > 100 µM
O=C(CCC(=O)C1CCC/C1=N/O)Nc1ccc(Cl)cc1 (stereo not drawn) | > 100 µM | > 100 µM | > 100 µM | > 100 | – | > 100 µM | – | TGI (RXF-631 renal): > 100 µM; TGI (XF 498 CNS): > 100 µM
Cc1c([N+](=O)[O-])oc2ccc3ccccc3c12 | – | – | – | – | – | – | > 100 | –
O=C(O)/C(=C\c1ccncc1)c1cccc2ccccc12 | – | – | – | – | – | – | > 100 | –
Cc1ccc(C(=O)CC2=Nc3nnc(CCCCCCCc4nnc5n4C(=O)C(CC(=O)c4ccc(C)cc4)=N5)n3C2=O)cc1 | – | > 100 µM | > 100 µM | – | > 100 µM | > 100 µM | – | TGI (RXF-631 renal): > 100 µM; TGI (XF 498 CNS): > 100 µM
Cc1ccc([C@]2(C)CC[C@H](C)/C2=C\Br)c(O)c1 | – | – | – | – | – | – | 10.3 | GI50 (MDA-N): 2.74 µM
C/C(=N\NC(=S)N(C)C)c1ccccn1 | – | – | – | – | – | – | – | GI50 (MDA-N): 0.178 µM
O=C1/C(=C/c2ccc(Br)cc2)CCC/C1=C\c1ccc(Br)cc1 | 15.7 µM | 78.6 µM | > 100 µM | 58.3 | 38.7 µM | 32.9 µM | – | TGI (RXF-631 renal): 18.1 µM; TGI (XF 498 CNS): 52 µM
O=[N+]([O-])c1ccc(C=NC23CC4CC(CC(C4)C2)C3)cc1 | > 100 µM | > 100 µM | > 100 µM | > 100 | > 100 µM | > 100 µM | – | TGI (RXF-631 renal): > 100 µM; TGI (XF 498 CNS): > 100 µM
CC(C)=CCCC(C)C1=C(O)C(=O)C(C)=CC1=O (stereo not drawn) | – | – | – | – | – | – | 21.7 | –
OCCN1CCN(CC/C=C2/c3ccccc3Sc3ccc(Cl)cc32)CC1 | 18.9 µM | 24 µM | 5.4 µM | 30.2 | 30.5 µM | 4.09 µM | – | TGI (XF 498 CNS): 25.4 µM
CC(=O)N/C(=C\c1ccc(Cc2nc3c([nH]2)C(=O)c2ccccc2C3=O)cc1)c1nc2c([nH]1)C(=O)c1ccccc1C2=O | – | – | > 100 µM | – | > 100 µM | > 100 µM | – | –
O=C(O)c1cc2ccccc2c2c1C(=O)c1ccccc1-2 | – | – | – | – | – | – | > 100 | –
CNCCN=c1ccc2c3c1c(O)c1c(O)ccc(=O)c1c3[nH]n2CCNCCO | 1.59 µM and 0.336 µM | 2.18 µM and 7.73 µM and 6.04 µM | 6.7 µM and 12.2 µM and 1.51 µM | 10.5 | 2.91 µM and 0.834 µM | 2.72 µM and 1.13 µM | 2.7 | GI50 (DMS 273 small cell lung): 0.053 µM and 0.0978 µM; GI50 (M19-MEL melanoma): 0.147 µM and 0.179 µM; GI50 (SN12K1 renal): 0.05 µM; TGI (SN12K1 renal): 2.54 µM and 0.598 µM
O=C(O)C(Oc1nc(=S)[nH]c(=S)[nH]1)(c1ccc(Cl)cc1)c1ccc(Cl)cc1 | – | – | – | – | – | – | > 100 | –
N#CCC(=O)N1CCCCCCC1 | > 100 µM | – | > 100 µM | > 100 | 91.7 µM | – | – | –
CCN(CC)CCNC(=O)c1cccc2nc3ccccc3nc12 | > 100 µM | > 63.4 µM | 67.8 µM | 71.2 | 22.3 µM | – | – | –
Oc1ccc(Cc2cc(Cl)cc(Cl)c2O)cc1Cl | – | – | – | – | – | – | 22.4 | –
C[C@]12CCC(=O)C=C1CC[C@@H]1C2CC[C@]2(C)c3nn(-c4ccccc4)nc3CC12 (stereo partly drawn) | > 100 µM | – | > 100 µM | > 100 | > 100 µM | > 100 µM | – | TGI (XF 498 CNS): > 100 µM
CCN(CC)C(=S)[S][Bi]([S]C(=S)N(CC)CC)[S]C(=S)N(CC)CC | 0.221 µM | 0.375 µM | 1.23 µM | 2.13 | 0.0444 µM | 0.314 µM | 2.04 | GI50 (DMS 114 small cell lung): 0.0193 µM; GI50 (DMS 273 small cell lung): 0.056 µM; GI50 (HOP-18 NSCLC): 0.202 µM; GI50 (KM20L2 colon): 0.128 µM; GI50 (M19-MEL melanoma): 0.162 µM; GI50 (MDA-N): 0.728 µM; GI50 (SNB-78 CNS): 0.598 µM
